The values that follow are results of earlier work, collected in patent US10369157B1 (priority 2018, dated 2019).

Some results are limits rather than exact numbers.

In data set [1] the test system is adrenergic alpha-2 receptors.
A further data set deals with rats. The note with it: rat, in vivo.

`Clc1cccc(Cl)c1NC1=NCCN1` [Clonidine, N-(2,6-dichlorophenyl)-4,5-dihydro-1H-imidazol-2-amine]: in the data set on patients (most patients), the “Effect on pulse rate in treated patients” value was “decrease in pulse rate”. The “Absorption by the human body” value (in vivo) was “well absorbed”. On to `Cc1cccc([C@H](C)c2cnc[nH]2)c1C` [Dexmedotomidine, 5-[(1S)-1-(2,3-dimethylphenyl)ethyl]-1H-imidazole], for which the “Affinity towards adrenergic alpha-2 receptors compared with Clonidine” value in data set [1] is “increased affinity”.

In the case of `CNC1(c2ccccc2Cl)CCCCC1=O` (centres unmarked) [Ketamine, 2-(2-chlorophenyl)-2-(methylamino)cyclohexan-1-one], in the data set with patients (human, in vivo), the “Clinical effects observed on patients following administration” value is “increased blood pressure, increased muscle tone (may resemble catatonia), opening of the eyes (usually accompanied by nystagmus), and increased myocardial oxygen consumption”. For the same compound, under “studies in humans”, the “Dose recovered through excreted feces” value is recorded as “approximately 3%” and the “Dose recovered through urine” value is reported as “approximately 91%”. For the compound `Cc1ncc2n1-c1ccc(Cl)cc1C(c1ccccc1F)=NC2` [Midazolam, 8-chloro-6-(2-fluorophenyl)-1-methyl-4H-imidazo[1,5-a][1,4]benzodiazepine], for the setting “humans”, the “Passage through the placenta into fetal circulation” value was “slowly pass through the placenta” and the “Presence in human milk” value is given as “small amounts”. Turning to `OCc1ncc2n1-c1ccc(Cl)cc1C(c1ccccc1F)=NC2` [alpha-hydroxymidazolam], the “Contribution to the effects of the sleep inducing agent” value in the data set with patients (intravenous administration) is reported as “approximately 10%”. The Elimination half-life (metabolite) was under 1 h. Also, the “Plasma concentrations relative to the parent compound” value (metabolite of the sleep inducing agent) is given as “approximately 12%”. Turning to `CN1CC[C@]23c4c5ccc(O)c4O[C@H]2[C@@H](O)C=C[C@H]3[C@H]1C5` [morphine], in the data set with rats, the “Minimum ratio of DL50 to DE50” value was 69.5. As for `Oc1cc(Cl)c(NC2=NCCN2)c(Cl)c1` [p-hydroxyclonidine], the “Pharmacological activity of the major metabolite” value in the data set on patients (human, in vivo) was “pharmacologically inactive”. For `CCOC(=O)C1(c2ccccc2)CCN(C)CC1` [pethidine], the “Minimum ratio of DL50 to DE50” value with rats is on record as 4.6.
